Results: US20240041042A1, “1-(PYRIDYL)-5-AZINYLPYRAZOLE DERIVATIVES, AND THEIR USE FOR CONTROL OF UNDESIRED PLANT GROWTH” (Bayer Aktiengesellschaft, priority 2020, published 2024)
Like-named read-outs stand apart in the source and are kept apart here.

Assays:
Format in all cases: in vivo
[1] = system: Pharbitis purpurea (PHBPU); assay: Post-emergence herbicidal action against PHBPU
Experimental: (§1) Seeds of monocotyledonous and dicotyledonous weeds and crop plants are placed in sandy loam in plastic or organic planting pots, covered with soil and cultivated in a greenhouse under controlled growth conditions. 2 to 3 weeks after sowing, the test plants are treated at the one-leaf stage. The compounds of the invention, formulated in the form of wettable powders (WP) or as emulsion concentrates (EC), are then sprayed onto the green parts of the plants as aqueous suspension or emulsion with addition of 0.5% additive at a water application rate of 600 l/ha (converted). After the test plants have been kept in the greenhouse under optimum growth conditions for about 3 weeks, the activity of the preparations is rated visually in comparison to untreated controls. For example, 100% activity=the plants have died, 0% activity=like control plants.
(§2) Tables B1 to B13 below show the effects of selected compounds of the general formula (I) according to Table 1 on various harmful plants and at an application rate corresponding to 320 g/ha or lower, which were obtained by the experimental procedure mentioned above. The appendices “a”, “b” and “c” give differentiation by dosage used with otherwise the same harmful plants tested.

[2] = system: Zea mays (ZEAMX); details: for Post-emergence action against ZEAMX in % (crop plant compatibility): 20 g/ha, effect in comparison to untreated controls
Experimental: as §1
(§3) The observed effects on selected crop plants are reported here in comparison to the untreated controls (values in %). The appendices “a”, “b” and “c” give differentiation by dosage used with otherwise the same crop plants tested.

[3] = system: Setaria viridis (SETVI); assay: Pre-emergence herbicidal action against SETVI
Excerpt: (§4) Seeds of monocotyledonous and dicotyledonous weed plants and crop plants are placed in plastic or organic planting pots and covered with soil. The compounds of the invention, formulated in the form of wettable powders (WP) or as emulsion concentrates (EC), are then applied to the surface of the covering soil as aqueous suspension or emulsion with addition of 0.5% additive at a water application rate equivalent to 600 l/ha. After the treatment, the pots are placed in a greenhouse and kept under good growth conditions for the trial plants. After about 3 weeks, the effect of the preparations is scored visually in comparison with untreated controls as percentages. For example, 100% activity=the plants have died, 0% activity=like control plants.
(§5) Tables A1 to A13 below show the effects of selected compounds of the general formula (I) on various harmful plants and at an application rate corresponding to 320 g/ha or lower, which were obtained by the experimental procedure mentioned above. The appendices “a”, “b” and “c” give differentiation by dosage used with otherwise the same harmful plants tested.

[4] = system: Avena fatua (AVEFA); assay: Post-emergence herbicidal action against AVEFA; details: visual rating about 3 weeks after treatment
Experimental: as §1, §2

[5] = system: Lolium rigidum (LOLRI); assay: Post-emergence herbicidal action against LOLRI
Experimental: as §1, §2

[6] = system: Verconica persica (VERPE); assay: Pre-emergence herbicidal action against VERPE; details: dosage 320 g/ha
Excerpt: as §4, §5

[7] = system: Viola tricolor (VIOTR); assay: Pre-emergence herbicidal action against VIOTR
Excerpt: as §4, §5

[8] = system: Alopecurus myosuroides (ALOMY); assay: Pre-emergence herbicidal action against ALOMY; details: scored visually after about 3 weeks, 100% = plants have died
Excerpt: as §4, §5

[9] = system: Polygonum convolvulus (POLCO); assay: Pre-emergence herbicidal action against POLCO
Excerpt: as §4, §5

[10] = system: Verconica persica (VERPE); assay: Post-emergence herbicidal action against VERPE
Experimental: as §1, §2

[11] = system: Avena fatua (AVEFA); assay: Pre-emergence herbicidal action against AVEFA; details: visual scoring after about 3 weeks vs untreated controls
Excerpt: as §4, §5

[12] = system: Pharbitis purpurea (PHBPU); assay: Pre-emergence herbicidal action against PHBPU; details: dosage 320 g/ha
Excerpt: as §4, §5

[13] = system: Echinochloa crus-galli (ECHCG); assay: Post-emergence herbicidal action against ECHCG
Experimental: as §1, §2

[14] = system: Amaranthus retroflexus (AMARE); assay: Pre-emergence herbicidal action against AMARE; details: visual scoring after about 3 weeks vs untreated controls
Excerpt: as §4, §5

[15] = system: Amaranthus retroflexus (AMARE); assay: Post-emergence herbicidal action against AMARE
Experimental: as §1, §2

[16] = system: Setaria viridis (SETVI); assay: Post-emergence herbicidal action against SETVI
Experimental: as §1, §2

[17] = system: Echinochloa crus-galli (ECHCG); assay: Pre-emergence herbicidal action against ECHCG
Excerpt: as §4, §5

[18] = system: Alopecurus myosuroides (ALOMY); assay: Post-emergence herbicidal action against ALOMY; details: visual rating about 3 weeks after treatment vs untreated controls (100% = plants have died, 0% = like control plants)
Experimental: as §1, §2

[19] = system: Lolium rigidum (LOLRI); assay: Pre-emergence herbicidal action against LOLRI
Excerpt: as §4, §5

[20] = system: Oryza sativa (ORYSA); details: crop plant compatibility
Experimental: as §1, §3

[21] = system: Matricaria inodora (MATIN); assay: Pre-emergence herbicidal action against MATIN
Excerpt: as §4, §5

[22] = system: Abutilon theophrasti (ABUTH); assay: Post-emergence herbicidal action against ABUTH; details: 320 g/ha, visual rating about 3 weeks after treatment vs untreated controls (100% = plants have died, 0% = like control plants)
Experimental: as §1, §2

[23] = system: Viola tricolor (VIOTR); assay: Post-emergence herbicidal action against VIOTR; details: 320 g/ha
Experimental: as §1, §2

[24] = system: Polygonum convolvulus (POLCO); assay: Post-emergence herbicidal action against POLCO; details: dosage 320 g/ha
Experimental: as §1, §2

[25] = 80 g/ha, visual rating about 3 weeks after treatment vs untreated controls (100% = plants have died, 0% = like control plants)
[26] = 80 g/ha, effect in comparison to untreated controls

`CCOC(=O)COc1nn(-c2ncccc2F)c(-c2ccc(F)nc2)c1C1CC1` [Example I-40] was tested, and the “Post-emergence action against PHBPU in %” value ([1]; dosage 80 g/ha) was 80%, the “Post-emergence action against ZEAMX in % (crop plant compatibility)” value [2] was 0% and the “Post-emergence action against ZEAMX in %” value ([2]; crop plant compatibility, 80 g/ha, effect vs untreated controls) was 20%. For the same compound, the “Pre-emergence action against SETVI in %” value ([3]; dosage 80 g/ha) was 100%, the “Pre-emergence action against SETVI in %” value ([3]; dosage 320 g/ha) was 100% and the “Post-emergence action against AVEFA in %” value ([4]; 80 g/ha) was 80%. For the same compound, the “Post-emergence action against LOLRI in %” value ([5]; dosage 80 g/ha) was 90%, the “Pre-emergence action against VERPE in %” value [6] was 100% and the “Pre-emergence action against VIOTR in %” value ([7]; 320 g/ha, Viola tricolor) was 100%. For the same compound, the “Pre-emergence action against VIOTR in %” value ([7]; dosage 80 g/ha) was 90%, the “Pre-emergence action against ALOMY” value ([8]; 80 g/ha) was 100% and the “Pre-emergence action against ALOMY” value ([8]; 320 g/ha) was 100%. For the same compound, the “Pre-emergence action against POLCO in %” value ([9]; dosage 320 g/ha) was 80%, the “Post-emergence action against VERPE in %” value ([10]; dosage 80 g/ha) was 80% and the “Pre-emergence action against AVEFA in %” value ([11]; 320 g/ha) was 100%. For the same compound, the “Pre-emergence action against PHBPU in %” value [12] was 80%, the “Post-emergence action against ECHCG in %” value ([13]; dosage 80 g/ha) was 90% and the “Pre-emergence action against AMARE in %” value ([14]; 80 g/ha) was 80%. For the same compound, the “Pre-emergence action against AMARE in %” value ([14]; 320 g/ha) was 100%, the “Post-emergence action against AMARE in %” value [15, 25] was 80% and the “Post-emergence action against SETVI in %” value ([16]; dosage 80 g/ha) was 80%. The “Pre-emergence action against ECHCG in %” value ([17]; dosage 80 g/ha) was 90%, the “Pre-emergence action against ECHCG in %” value ([17]; dosage 320 g/ha) was 100% and the “Post-emergence action against ALOMY in %” value ([18]; 80 g/ha) was 100%. The “Pre-emergence action against LOLRI in %” value ([19]; dosage 80 g/ha) was 90% and the “Pre-emergence action against LOLRI in %” value ([19]; dosage 320 g/ha) was 100%.

In the case of `CCOC(=O)[C@@H](C)Oc1nn(-c2ccccn2)c(-c2ccc(F)nc2)c1Br` [Example I-91], the “Post-emergence action against PHBPU in %” value ([1]; dosage 80 g/ha) is reported as 80%, the “Post-emergence action against ORYSA in %” value ([20]; 20 g/ha, effect vs untreated controls) is reported as 0% and the “Post-emergence action against ORYSA in %” value [20, 26] is reported as 20%. For the same compound, the “Post-emergence action against ZEAMX in % (crop plant compatibility)” value [2] was 20%, the “Pre-emergence action against SETVI in %” value ([3]; dosage 80 g/ha) was 100% and the “Pre-emergence action against SETVI in %” value ([3]; dosage 320 g/ha) was 100%. The “Post-emergence action against AVEFA in %” value ([4]; 80 g/ha) was 90%, the “Post-emergence action against LOLRI in %” value ([5]; dosage 80 g/ha) was 90% and the “Pre-emergence action against VERPE in %” value [6] was 100%. The “Pre-emergence action against VIOTR in %” value ([7]; 320 g/ha, Viola tricolor) was 100%, the “Pre-emergence action against VIOTR in %” value ([7]; dosage 80 g/ha) was 90% and the “Pre-emergence action against ALOMY” value ([8]; 80 g/ha) was 90%. For the same compound, the “Pre-emergence action against ALOMY” value ([8]; 320 g/ha) was 100%, the “Post-emergence action against VERPE in %” value ([10]; dosage 80 g/ha) was 80% and the “Pre-emergence action against MATIN in %” value ([21]; dosage 320 g/ha) was 90%. The “Pre-emergence action against AVEFA in %” value ([11]; 320 g/ha) was 100%, the “Post-emergence action against ECHCG in %” value ([13]; dosage 80 g/ha) was 80% and the “Pre-emergence action against AMARE in %” value ([14]; 80 g/ha) was 90%. For the same compound, the “Pre-emergence action against AMARE in %” value ([14]; 320 g/ha) was 100%, the “Post-emergence action against AMARE in %” value [15, 25] was 90% and the “Post-emergence action against SETVI in %” value ([16]; dosage 80 g/ha) was 80%. For the same compound, the “Pre-emergence action against ECHCG in %” value ([17]; dosage 320 g/ha) was 100%, the “Post-emergence action against ALOMY in %” value ([18]; 80 g/ha) was 90% and the “Pre-emergence action against LOLRI in %” value ([19]; dosage 80 g/ha) was 100%. The “Pre-emergence action against LOLRI in %” value ([19]; dosage 320 g/ha) was 100%.

With `C[C@@H](Oc1nn(-c2nc(F)ccc2F)c(-c2ccc(F)nc2)c1Br)C(=O)O` [Example I-333] the “Post-emergence action against PHBPU in %” value ([1]; dosage 80 g/ha) was 80%, the “Post-emergence action against PHBPU in %” value ([1]; dosage 320 g/ha) was 90% and the “Post-emergence action against ORYSA in %” value [20, 26] was 20%. The “Pre-emergence action against SETVI in %” value ([3]; dosage 320 g/ha) was 90%, the “Post-emergence action against ABUTH in %” value [22] was 80% and the “Post-emergence action against AVEFA in %” value ([4]; 80 g/ha) was 80%. The “Post-emergence action against AVEFA in %” value ([4]; 320 g/ha) was 90%, the “Post-emergence action against LOLRI in %” value ([5]; dosage 320 g/ha) was 90% and the “Pre-emergence action against VERPE in %” value [6] was 100%. For the same compound, the “Pre-emergence action against VIOTR in %” value ([7]; 320 g/ha, Viola tricolor) was 100%, the “Pre-emergence action against VIOTR in %” value ([7]; dosage 80 g/ha) was 100% and the “Pre-emergence action against ALOMY” value ([8]; 80 g/ha) was 90%. For the same compound, the “Pre-emergence action against ALOMY” value ([8]; 320 g/ha) was 100%, the “Pre-emergence action against POLCO in %” value ([9]; dosage 80 g/ha) was 90% and the “Pre-emergence action against POLCO in %” value ([9]; dosage 320 g/ha) was 90%. For the same compound, the “Post-emergence action against VIOTR in %” value [23] was 80%, the “Post-emergence action against VERPE in %” value ([10]; 320 g/ha, VERPE) was 90% and the “Pre-emergence action against MATIN in %” value ([21]; dosage 80 g/ha) was 80%. For the same compound, the “Pre-emergence action against MATIN in %” value ([21]; dosage 320 g/ha) was 90%, the “Pre-emergence action against AVEFA in %” value ([11]; 80 g/ha) was 80% and the “Pre-emergence action against AVEFA in %” value ([11]; 320 g/ha) was 90%. The “Post-emergence action against ECHCG in %” value ([13]; dosage 80 g/ha) was 80%, the “Post-emergence action against ECHCG in %” value ([13]; dosage 320 g/ha) was 90% and the “Post-emergence action against POLCO in %” value [24] was 80%. The “Pre-emergence action against AMARE in %” value ([14]; 80 g/ha) was 90%, the “Pre-emergence action against AMARE in %” value ([14]; 320 g/ha) was 100% and the “Post-emergence action against AMARE in %” value ([15]; 320 g/ha, visual rating about 3 weeks after treatment) was 80%. The “Post-emergence action against SETVI in %” value ([16]; dosage 320 g/ha) was 80%, the “Pre-emergence action against ECHCG in %” value ([17]; dosage 320 g/ha) was 90% and the “Post-emergence action against ALOMY in %” value ([18]; 80 g/ha) was 90%. For the same compound, the “Post-emergence action against ALOMY in %” value ([18]; 320 g/ha) was 90%, the “Pre-emergence action against LOLRI in %” value ([19]; dosage 80 g/ha) was 80% and the “Pre-emergence action against LOLRI in %” value ([19]; dosage 320 g/ha) was 100%.
